The values below come from patent US20230257350A1, “COMPOUNDS AND METHODS OF PROMOTING OLIGODENDROCYTE PRECURSOR DIFFERENTIATION” (The Cleveland Clinic Foundation, priority 2020, published 2023).

Series [1] has as its system oligodendrocyte progenitor cells (OPC). Nature of the series: 96-well OPC screening platform: oligodendrocyte generation from primary OPCs. The series is classed as cell-based, mouse. The note with it: for EC50: Mus musculus, Oligodendrocyte progenitor cell. The procedure: 1) an optimized method to produce primary culture of highly pure mouse oligodendrocyte progenitor cells (OPC); and
2) an algorithm to identify and quantify oligodendrocytes in 96-well format.
(§1) Briefly, the high-throughput small molecule screen included a primary screening where small drug-like organic compounds ([…]) are added to cells seeded on a 96-well plate an incubated. The cells are then visually screened for oligodendrocyte precursor morphology changes. In a secondary screening, differentiation induced by selected compounds was further validated by fluorescence microscopy. Increased fluorescence in treated oligodendrocyte cells generated from a PIp-EGFP transgenic mouse was indicative of cell maturation. Further oligodendrocyte precursor maturation in response to selected compounds was assessed by induction of myelin protein expression as determined by immunocytochemistry and western blot.
Using the 96-well OPC-screening platform, a CNS-bias library of 20,000 drug-like small molecule compounds (Cambridge Co., San Diego, Calif.) was screened, using DMSO as a negative control and T3 (triiodothyronine) as a positive control. Initial screening was at 10 μM, and 390 primary hits were identified. Further testing confirmed that 57 compounds produced at least 50% response of T3.

The nature of the next series: MTT assay (viability). The class given is cell-based. The following applies: up to 30 μM. On the technique in general: Tetrazolium assays rely on reduction of a dye to a coloured formazan, in cell work by metabolically active cells.
The next series in a line: Solubility. The series is classed as physicochemical.
The nature of series [2]: Preliminary pharmacokinetic analysis, i.p. injection, LC/MS/MS of plasma and brain. The class given is in vivo. The note with it: i.p. 10 mg/kg, mice.
For series [3], the system named is cuprizone mouse model of demyelination/remyelination. Nature of the series: Cuprizone/rapamycin demyelination and remyelination model. The series is classed as in vivo, mice. The following applies: i.p. daily 6 weeks, 10 mg/kg, vs control. The text has this: 2016; 283(Pt A): 330-340, which is incorporated herein by reference in its entirety. […] At the end of the treatment period, mice were perfused and different tissues analyzed for remyelination. In cortex and hippocampus, PLP antibody staining was used to assess remyelination. In corpus callosum, the number of myelinated axons in semi-thin (1 μm) Epon sections was quantified. […] This in vivo animal data further validates a strategy of using cell-based phenotypic screening to identify remyelination compounds.

Another series deals with OPCs (PLP-EGFP). Put plainly: Immunostaining of oligodendrocyte markers PLP and MBP in treated OPCs. The series is classed as cell-based, mouse. The following applies: 4 days treatment. The procedure: as §1
Finally, similar activation of oligodendrocyte markers was observed when wild-type OPCs were treated with the “hit” compounds, eliminating the possibility that expression of the EGFP construct affected the results.

Each structure is given as a SMILES string.

The term EC50 denotes the concentration at which the effect is half-maximal. A higher EC50 goes with a need for much substance. With `CC1CCC(N2CCN(Cc3cccc(Br)c3)CC2)CC1` (centres unmarked) [CN007], the response in series [1] was half-maximal at 40 nM (EC50). That is a double-digit nanomolar value.
A word on the viability: it is the share of living cells, or the viability signal relative to a control. Low values mean more harm to the cells, high ones less harm to the cells. What is called solubility is how much of the substance goes into solution per volume. The low end stands for a poorly soluble substance, the high end for a readily soluble substance. Take `CC1CCN(CCOCCOc2c(Cl)cc(Cl)cc2Cl)CC1` [CN045]: the EC50 in series [1] (Table 1, OPC differentiation) was determined as 40 nM. Moreover, the “increase in the percentage of oligodendrocytes compared with DMSO controls” value in series [1] (dose-response, FIG. 3B) is recorded as ~4 fold. For the same molecule, the “efficacy compared with benztropine, clemastine or T3” value in series [1] (same OPC assay, multiple concentrations, FIG. 2) is “almost twice the efficacy”. In addition, the viability in the series “MTT assay (viability)” is listed as > 80%. Further, the solubility in the series “Solubility” was > 500 µM. Also, in series [2] (C57BU6J, mouse, ip, brain homogenate vs. plasma, read-out: brain/plasma ratio), the Kp is 0.8. Further, in series [2], the “time of peak concentration following injection” value was ~2 h. In series [3] (p<0.01), the “remyelination in corpus callosum (number of myelinated axons)” value is recorded as “significantly increased remyelination” and the “remyelination in cortex (PLP antibody staining)” value is “significantly increased remyelination”. Also, in series [3] (p<0.05), the “remyelination in hippocampus (PLP antibody staining)” value was “significantly increased remyelination”. Further, the “co-labeling of EGFP+ cells by PLP and MBP antibodies” value in the series on OPCs (PLP-EGFP) was “All EGFP+ cells were co-labeled by PLP and MBP antibodies”.
Turning to `CCc1cc(OCCOCCN2CCC(C)CC2)ccc1Cl` [CN049], the EC50 in series [1] (Table 1, OPC differentiation) stood at 165 nM.
`Cc1cc(Cl)cc(Cl)c1OCCOCCN1CCN(C)CC1` [CN265] had an EC50 in series [1] (Table 1, OPC differentiation) of 540 nM.
In series [1] (Table 2, OPC differentiation), `Cc1cc(Cl)cc(C)c1OCCCCN1CCC[C@H](C)C1` [CN329] displayed an EC50 of 42 nM. In other words, the double-digit nanomolar range.
For `Cc1cc(Cl)cc(C)c1OCCCCN1CCCCC1` [CN478], in series [1] (Table 2, OPC differentiation), a half-maximal response (EC50) required 78 nM. Compared with the last molecule, the EC50 is about 1.9-fold higher.
`Fc1cc(Cl)ccc1OC[C@@H]1CCCN2CCCC[C@H]12` [CN566] displayed an EC50 in series [1] (Table 2, OPC differentiation) of 340 nM.
Molecule `Cc1ccc(OCCOCCN2CCC(C)CC2)c(Cl)c1` [CN570] gave an EC50 in series [1] (Table 1, OPC differentiation) of 200 nM.
`Cc1cc(Cl)cc(C)c1OCCCCN1CCOCC1` [CN644] displayed an EC50 in series [1] (Table 2, OPC differentiation) of 270 nM.
In turn, `Cc1cc(Cl)ccc1OCCOCCN1CCC(C)CC1` [CN918] displayed an EC50 in series [1] (Table 1, OPC differentiation) of 193 nM.
